This is an account of results in ChEMBL document CHEMBL4825675, “Longipetalol A: A Highly Modified Triterpenoid from Dichapetalum longipetalum” (J Nat Prod, 2021).

Each structure is given as a SMILES string.

This assay relates to RAW264.7. As to the kind of experiment: Antiinflammatory activity in mouse RAW264.7 cells assessed as inhibition of LPS-induced NO production incubated for 24 hrs in presence of LPS by Griess reagent-based assay. The format is functional, cell-based. The settings on record: RAW264.7, 24 h.
Turning to `C/C(=C\[C@H]1C[C@@](O)([C@@H]2CC[C@]34C[C@]23C=CC2[C@@]3(C)CC(=O)/C(=C\C(=O)c5ccccc5)C(C)(C)[C@@H]3CC(=O)[C@]24C)C(=O)O1)CO` (some centres undefined), the IC50 was found to be 3.5 µM.
In the case of `C/C(=C\[C@H]1C[C@@](O)([C@@H]2CC[C@]34C[C@]23C=CC2[C@@]4(C)[C@H](O)C[C@H]3C(C)(C)/C(=C/C(=O)c4ccccc4)C(=O)C[C@]23C)C(=O)O1)CO` (some centres undefined) it was 1.6 µM; in that of `C[C@@H]1C[C@H]2[C@@H]3CCC4=CC(=O)C=C[C@]4(C)[C@@]3(F)[C@@H](O)C[C@]2(C)[C@@]1(O)C(=O)CO` [DEXAMETHASONE], 6.9 µM.
As for `C/C(=C\[C@H]1C[C@@](O)([C@@H]2CC[C@]34C[C@]23C=CC2[C@]3(C)C(CC(=O)[C@]24C)C(C)(C)[C@@]2(CC(=O)c4ccccc4)O[C@@H]3OC2=O)C(=O)O1)CO` (some centres undefined), the concentration for half-maximal inhibition (IC50) amounted to 11.4 µM.
